Biological target: human APJ receptor (Homo sapiens (Human), UniProt P35414)
Test: Intracellular cAMP accumulation assay (APJ hcAMP, HTRF)
Type: cell-based
Settings: HEK293 cells stably expressing human APJ receptor; inhibition of forskolin-mediated cAMP production; read-out: Human APJ cAMP EC50 Potency range
How it was run: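 HEK293 cells stably expressing human APJ, 5,000 per well, incubated 30 min at rt with compound, […] and 2 μM forskolin. cAMP measured by HTRF against a cAMP standard curve as inhibition of forskolin-driven production. EC50 from variable-slope sigmoidal fit.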

Sequence of human APJ receptor (P35414 whole entry): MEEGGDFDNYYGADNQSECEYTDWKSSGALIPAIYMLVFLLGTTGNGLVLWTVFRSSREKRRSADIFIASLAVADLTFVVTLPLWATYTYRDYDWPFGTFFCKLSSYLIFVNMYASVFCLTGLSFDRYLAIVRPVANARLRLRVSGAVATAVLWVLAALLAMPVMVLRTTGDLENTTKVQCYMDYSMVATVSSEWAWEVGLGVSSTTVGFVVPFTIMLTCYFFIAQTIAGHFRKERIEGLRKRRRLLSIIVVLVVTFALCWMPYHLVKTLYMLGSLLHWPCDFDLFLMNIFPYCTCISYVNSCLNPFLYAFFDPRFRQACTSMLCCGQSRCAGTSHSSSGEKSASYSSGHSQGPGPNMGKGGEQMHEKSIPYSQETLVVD

Row | Structure (SMILES) | EC50 [nM]
1 | CCCCc1nc(=O)c(S(=O)(=O)c2ccc(-c3ccnc(F)c3C)cc2)c(O)n1[C@H](c1cccc(C#N)c1)C1CC1 [Example 476, 3-[(S)-{2-butyl-5-[4-(2-fluoro-3-methylpyridin-4-yl)benzenesulfonyl]-6-hydroxy-4-oxo-1,4-dihydropyrimidin-1-yl}(cyclopropyl)methyl] benzonitrile] | 0.01 to 10
2 | CCCCc1nc(=O)c(S(=O)(=O)c2ccc(-c3ccc(F)cc3C(N)=O)cc2)c(O)n1[C@H](c1cccc(C#N)c1)C1CC1 [Example 477, 4′-({2-butyl-1-[(S)-(3-cyanophenyl)(cyclopropyl)methyl]-6-hydroxy-4-oxo-1,4-dihydropyrimidin-5-yl}sulfonyl)-4-fluoro-[1,1′-biphenyl]-2-carboxamide] | 0.01 to 10
3 | C/C=C(/c1cccc(C#N)c1)n1c(CCCC)nc(=O)c(S(=O)(=O)c2ccc(-c3ccncc3C)cc2)c1O [Example 478, 3-[(1Z)-1-{2-butyl-6-hydroxy-5-[4-(3-methylpyridin-4-yl)benzenesulfonyl]-4-oxo-1,4-dihydropyrimidin-1-yl}prop-1-en-1-yl]benzonitrile] | 0.01 to 10
4 | CCCCc1nc(=O)c(S(=O)(=O)c2ccc(-c3ccc(F)nc3C)cc2)c(O)n1[C@H](c1cccc(C#N)c1)C1CC1 [Example 479, 3-[(S)-{2-butyl-5-[4-(6-fluoro-2-raethylpyridin-3-yl)benzenesulfonyl]-6-hydroxy-4-oxo-1,4-dihydropyrimidin-1-yl}(cyclopropyl)methyl] benzonitrile] | 0.01 to 10
5 | CCCCc1nc(=O)c(S(=O)(=O)c2ccc(-c3cccn(C)c3=O)cc2)c(O)n1[C@H](c1cccc(C#N)c1)C1CC1 [Example 480, 3-[(S)-{2-butyl-6-hydroxy-5-[4-(1-methyl-2-oxo-1,2-dihydropyridin-3-yl)benzenesulfonyl]-4-oxo-1,4-dihydropyrimidin-1-yl}(cyclopropyl)methyl] benzonitrile] | 0.01 to 10
6 | CCCCc1nc(=O)c(S(=O)(=O)c2ccc(-c3ccccc3C(=O)OC)cn2)c(O)n1[C@@H](CC)c1cccc(C#N)c1 [Example 481, methyl 2-[6-({2-butyl-1-[(1S)-1-(3-cyanophenyl)propyl]-6-hydroxy-4-oxo-1,4-dihydropyrimidin-5-yl}sulfonyl)pyridin-3-yl]benzoate] | 0.01 to 10
7 | CCCCc1nc(=O)c(S(=O)(=O)c2ccc(-c3ccccc3C)cn2)c(O)n1[C@@H](CC)c1cccc(C#N)c1 [Example 482, 3-[(1S)-1-(2-butyl-6-hydroxy-5-{[5-(2-methy!phenyl)pyridin-2-yl]sulfonyl}-4-oxo-1,4-dihydropyrimidin-1-yl)propyl]benzonitrile] | 0.01 to 10
8 | C/C=C(/c1cccc(C#N)c1)n1c(CCCC)nc(=O)c(S(=O)(=O)c2ccc(-c3ccnc(F)c3C)cc2)c1O [Example 483, 3-[(1Z)-1-{2-butyl-5-[4-(2-fluoro-3-methylpyridin-4-yl)benzenesulfonyl]-6-hydroxy-4-oxo-1,4-dihydropyrimidin-1-yl}prop-1-en-1-yl]benzonitrile] | 0.01 to 10
9 | CCCCc1nc(=O)c(S(=O)(=O)c2ccc(-c3cccnc3C)cc2)c(O)n1[C@H](c1cccc(C#N)c1)C1CC1 [Example 484, 3-[(S)-{2-butyl-6-hydroxy-5-[4-(2-methyipyridin-3-yl)benzenesulfonyl]-4-oxo-1,4-dihydropyrimidin-1-yl}(cyclopropyl)methyl] benzonitrile] | 0.01 to 10
10 | CCCCc1nc(=O)c(S(=O)(=O)c2ccc(-c3cccn(C)c3=O)cn2)c(O)n1[C@@H](CC)c1cccc(C#N)c1 [Example 485, 3-[(1S)-1-[2-butyl-6-hydroxy-5-({1′-methyl-2′-oxo-1′,2′-dihydro-[3,3′-bipyridine]-6-yl}sulfonyl)-4-oxo-1,4-dihydropyrimidin-1-yl]propyl]benzonitrile] | 0.01 to 10
11 | CC[C@@H](c1cccc(C#N)c1)n1c(CC2CC2)nc(=O)c(S(=O)(=O)c2ccc(-c3cccnc3C(N)=O)cc2)c1O [Example 486, 3-[4-({1-[(1S)-1-(3-cyanophenyl)propyl]-2-(cyclopropylmethyl)-6-hydroxy-4-oxo-1,4-dihydropyrimidin-5-yl}sulfonyl)phenyl] pyridine-2-carboxamide] | 0.01 to 10
12 | CCCCc1nc(=O)c(S(=O)(=O)c2ccc(-c3ccncc3C)cc2)c(O)n1[C@H](c1cccc(C#N)c1)C1CC1 [Example 487, 3-[(S)-{2-butyl-6-hydroxy-5-[4-(3-methylpyridin-4-yl)benzenesulfonyl]-4-oxo-1,4-dihydropyrimidin-1-yl}(cyclopropyl)methyl] benzonitrile] | 0.01 to 10
13 | CC[C@@H](c1cc(F)cc(C#N)c1)n1c(CC2CC2)nc(=O)c(S(=O)(=O)c2ccc(-c3ccnc(F)c3C)cc2)c1O [Example 488, 3-[(1S)-1-[2-(cyclopropylmethyl)-5-[4-(2-fluoro-3-methylpyridin-4-yl)benzenesulfonyl]-6-hydroxy-4-oxo-1,4-dihydropyrimidin-1-yl]propyl]-5-fluorobenzonitrile] | 0.01 to 10
14 | CCCCc1nc(=O)c(S(=O)(=O)c2ccc(-c3ccccc3C(=O)N3CCOCC3)cc2)c(O)n1[C@@H](CC)c1cccc(C#N)c1 [Example 489, 3-[(1S)-1-(2-butyl-6-hydroxy-5-{[2′-(morpholine-4-carbonyl)-[1,1′-biphenyl]-4-yl)sulfonyl}-4-oxo-1,4-dihydropyrimidin-1-yl)propyl]benzonitrile] | 0.01 to 10
15 | Cn1cccc(-c2ccc(S(=O)(=O)c3c(O)n([C@H](c4cccc(C#N)c4)C4CC4)c(CC4CC4)nc3=O)cc2)c1=O [Example 490, 3-[(S)-cyclopropyl[2-(cyclopropylmethyl)-6-hydroxy-5-[4-(1-methyl-2-oxo-1,2-dihydropyridin-3-yl)benzenesulfonyl]-4-oxo-1,4-dihydropyrimidin-1-yl]methyl]benzonitrile] | 0.01 to 10
16 | CCCCc1nc(=O)c(S(=O)(=O)c2ccc(-c3ccccc3C)cc2)c(O)n1[C@@H](CC)c1cccc(C#N)c1 [Example 491, 3-[(1S)-1-[2-butyl-6-hydroxy-5-({2′-methyl-[1,1′-biphenyl]-4-yl}sulfonyl)-4-oxo-1,4-dihydropyrimidin-1-yl]propyl]benzonitrile] | 0.01 to 10
17 | CCCCc1nc(=O)c(S(=O)(=O)c2ccc(-c3cccc(C#N)c3C)cc2)c(O)n1[C@@H](CC)c1cccc(C#N)c1 [Example 492, 4′-({2-butyl-1-[(1S)-1-(3-cyanophenyl)propyl]-6-hydroxy-4-oxo-1,4-dihydropyrimidin-5-yl}sulfonyl)-2-methyl-[1,1′-biphenyl]-3-carbonitrile] | 0.01 to 10
18 | CCCCc1nc(=O)c(S(=O)(=O)c2ccc(-c3cc(C#N)ccc3C)cc2)c(O)n1[C@@H](CC)c1cccc(C#N)c1 [Example 493, 4′-({2-butyl-1-[(1S)-1-(3-cyanophenyl)propyl]-6-hydroxy-4-oxo-1,4-dihydropyrimidin-5-yl}sulfonyl)-6-methyl-[1,1′-biphenyl]-3-carbonitrile] | 0.01 to 10
19 | CCCCc1nc(=O)c(S(=O)(=O)c2ccc(-c3ccc(F)cc3C(N)=O)cc2)c(O)n1[C@@H](CC)c1cccc(C#N)c1 [Example 494, 4′-({2-butyl-1-[(1S)-1-(3-cyanophenyl)propyl]-6-hydroxy-4-oxo-1,4-dihydropyrimidin-5-yl}sulfonyl)-4-fluoro-[1,1′-biphenyl]-2-carboxamide] | 0.01 to 10
20 | CCCCc1nc(=O)c(S(=O)(=O)c2ccc(-c3c[nH]nc3C)cc2)c(O)n1[C@@H](CC)c1cccc(C#N)c1 [Example 495, 3-[(1S)-1-{2-butyl-6-hydroxy-5-[4-(3-methyl-1H-pyrazol-4-yl)benzenesulfonyl]-4-oxo-1,4-dihydropyrimidin-1-yl}propyl]benzonitrile] | 0.01 to 10
21 | Cc1cnccc1-c1ccc(S(=O)(=O)c2c(O)n([C@H](c3cccc(C#N)c3)C3CC3)c(CC3CC3)nc2=O)cc1 [Example 496, 3-[(S)-cyclopropyl[2-(cyclopropylmethyl)-6-hydroxy-5-[4-(3-methylpyridin-4-yl)benzenesulfonyl]-4-oxo-1,4-dihydropyrimidin-1-yl]methyl]benzonitrile] | 0.01 to 10
22 | Cc1ncccc1-c1ccc(S(=O)(=O)c2c(O)n([C@H](c3cccc(C#N)c3)C3CC3)c(CC3CC3)nc2=O)cc1 [Example 497, 3-[(S)-cyclopropyl[2-(cyclopropylmethyl)-6-hydroxy-5-[4-(2-methylpyridin-3-yl)benzenesulfonyl]-4-oxo-1,4-dihydropyrimidin-1-yl]methyl]benzonitrile] | 0.01 to 10
23 | Cc1c(-c2ccc(S(=O)(=O)c3c(O)n([C@H](c4cccc(C#N)c4)C4CC4)c(CC4CC4)nc3=O)cc2)ccnc1F [Example 498, 3-[(S)-cyclopropyl[2-(cyclopropylmethyl)-5-[4-(2-fluoro-3-methylpyridin-4-yl)benzenesulfonyl]-6-hydroxy-4-oxo-1,4-dihydropyrimidin-1-yl]methyl]benzonitrile] | 0.01 to 10
24 | Cc1nc(F)ccc1-c1ccc(S(=O)(=O)c2c(O)n([C@H](c3cccc(C#N)c3)C3CC3)c(CC3CC3)nc2=O)cc1 [Example 499, 3-[(S)-cyclopropyl[2-(cycIopropylmethyl)-5-[4-(6-fluoro-2-methylpyridin-3-yl)benzenesulfonyl]-6-hydroxy-4-oxo-1,4-dihydropyrimidin-1-yl]methyl]benzonitrile] | 0.01 to 10
25 | N#Cc1cccc([C@H](C2CC2)n2c(CC3CC3)nc(=O)c(S(=O)(=O)c3ccc(-c4ccc(F)cc4C(N)=O)cc3)c2O)c1 [Example 500, 4′-({1-[(S)-(3-cyanophenyl)(cyclopropyl)methyl]-2-(cyclopropylmethyl)-6-hydroxy-4-oxo-1,4-dihydropyrimidin-5-yl}sulfonyl)-4-fluoro-[1,1′-biphenyl]-2-carboxamide] | 0.01 to 10
26 | CCCCc1nc(=O)c(S(=O)(=O)c2ccc(-c3ccccc3C(=O)OC)cc2)c(O)n1[C@@H](CC)c1cccc(C#N)c1 [Example 501, methyl 4′-({2-butyl-1-[(1S)-1-(3-cyanophenyl)propyl]-6-hydroxy-4-oxo-1,4-dihydropyrimidin-5-yl}sulfonyl)-[1,1′-biphenyl]-2-carboxylate] | 0.01 to 10
